Results as given in patent publication US8445449B2, “Method and peptide for regulating cellular activity” (The United States of America, as represented by the …, priority 2004, dated 2013).
Read-outs that look alike come from different tables or passages of the source. Where no end group is shown, it is not given here.

Assays:
[1] = tested on: cell viability
[2] = tested on: bacterial-induced middle ear inflammation; details: 10 μM peptide without bacteria, five mice, 3 days

Row | Sequence | effect on cell viability ([1]; 10 μM) | effect of peptide alone on fluid area, cell number, tympanic membrane thickness vs PBS injected ear [2] | effect on cell viability [1]
1 | DIVKLTVYDCIRRRRRRRRR [peptide P13] | no effect on cell viability | no differences | 
2 | ITCVDVDLIYKRRRRRRRRR [Scrambled peptide, reference compound] |  |  | no effect on cell viability
